In patent US20220017572A1, “GEMINOID LIPOPEPTIDE COMPOUNDS AND THEIR USES” (Erasmus University Medical Center Rotterdam, priority 2016, published 2022):
Non-standard residues stand in square brackets, D forms with d. Residues, ends and D or L forms follow the SMILES beside them. C16 = C16 alkyl chain at peptide end (geminoid)

Key:
human furin = human furin (Homo sapiens, UniProt P09958); assay: Human furin inhibition, hydrolysis of Ac-RVRR-MCA; assay type: biochemical
Method: (§1) The enzyme was dissolved in 1 mL MES buffer (10 mM), 1 mM CaCl2, pH 7.0 at 36.5° C. Substrate was added in a concentration 10 times the Km, and the inhibitor compounds of type C (C16-KGnK-C16, C16-KAnK-C16, and C16-RAnR-C16) were added in increasing concentrations (1.0, 5.0, 10.0, 20.0, 40.0 μL) from a stock solution of 2 mg in 1 mL DMSO. The residual activity was measured in a Hitachi F2500 spectrofluorimeter, and plots were fitted using the Grafit® software (Erithracus Software, Horley, Surrey, UK). All the assays were calculated by the Morrison equation for competitive inhibition (eq. 1, [Morrison, 1969]). The amount of substrate used for the tight binding titration experiments follow all the requirements, where [S]<<Km for all enzymes, so the Kiapp=Ki.
However, for furin we used a correction of Ki app, where [S]˜Km (eq. 2).
(§2) Range of Proteases Inhibited by Geminoids, Determination of Ki with Z-RR-MCA (Dengue 2 Protease) and Ac-RVRR-MCA (Furin) (SEQ ID NO:60).

dengue 2 protease [1] = target: T1, dengue 2 protease (Dengue virus type 2, UniProt P14340); assay: Dengue 2 protease inhibition in presence of Triton X-100 (detergent test, Nature Protocol); assay type: biochemical, dengue 2 virus; conditions: 0.05% Triton X-100; for Activity with 0.05% Triton: initial activity in UAF/min
T1 construct: The active site of the dengue protease is in the N-terminal part of NS3
Text: A further investigation of the interactions of the geminoid inhibitors with biological membranes and with membrane-bound proteases is needed. […] The preparation and tests of peptides symmetrically, asymmetrically and singly alkylated with saturated, short (C6), and unsaturated (C18:1) alkyl tails are in progress.

thrombin = thrombin (Homo sapiens, UniProt P00734); assay: Thrombin inhibition, fluorimetric enzyme assay; assay type: biochemical; conditions: 36.5° C., read-out: Residual Activity (%) Thrombin
Method: as §1, with “Kiapp=Ki. […]” for “Kiapp=Ki.”

dengue 2 protease [2] = target: T1, dengue 2 protease; assay: Dengue 2 protease inhibition, hydrolysis of Z-RR-MCA; assay type: biochemical, dengue 2 virus; design: Activity with inhibitors: unit not given here; conditions: for Activity with inhibitors: 10 μM Z-RR-MCA, pH 9.0, 37° C., initial activity in UAF/min
Method: The active site of the dengue protease is in the N-terminal part of NS3 which is also a serine protease with catalytic triad Asp79-His51-Ser135, but requires […] (CF40) for activity; the inhibition reported here was studied on a […] (CF40-GGGGSGGGG-NS3; (SEQ ID NO:54)) which has also been structurally characterized [Erbel et al., 2006; Luo et al. 2008].
as §1, with “Substrate” for “The enzyme was dissolved in 1 mL MES buffer (10 mM), 1 mM CaCl2, pH 7.0 at 36.5° C. Substrate”
as §2

DENV2 protease = target: T2, DENV2 protease (Dengue virus type 2, UniProt P14340); assay: DENV2 protease biochemical assay; conditions: for inhibition at 50 µM / % Inhibition at 50 μM (2): 50 μM inhibitor
T2 construct: The active site of the dengue protease is in the N-terminal part of NS3

trypsin = target: T3, trypsin (Bos taurus, UniProt P00760); assay: Trypsin inhibition, fluorimetric enzyme assay; assay type: biochemical; conditions: 36.5° C., read-out: Residual Activity (%) Trypsin
T3 construct: gene PRSS1
T3 sequence (P00760 24-246): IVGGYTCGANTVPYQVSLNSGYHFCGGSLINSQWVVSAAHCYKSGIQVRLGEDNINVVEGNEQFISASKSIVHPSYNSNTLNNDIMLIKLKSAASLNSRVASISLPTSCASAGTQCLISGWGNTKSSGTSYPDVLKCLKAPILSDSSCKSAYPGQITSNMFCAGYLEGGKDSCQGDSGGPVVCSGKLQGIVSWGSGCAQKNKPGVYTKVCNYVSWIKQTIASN
Method: as §1
The first group of gemini-like peptide amphiphiles to be screened was that of C16-K(G or A)nK-C16 (compound type C, with R1=n-C15H31, R2=n-C16H33). […] The results of the Ki determination for trypsin, dengue 2 protease, and human furin are given in Table 1A; some general data for the inhibition by this type of compounds are given in Table 1B. For most compounds in Table 1 the Ki could be derived from competitive inhibition experiments. Judging from the Ki values with the relatively simple substrate Z-RR-MCA, the best inhibitors for dengue 2 protease contain alanine (A) rather than glycine (G).

DENV2 protease replicon = DENV2 protease replicon assay; assay type: cell-based; conditions: lowest concentration with observed activity in replicon assay

T2 sequence (P14340 1476-1653): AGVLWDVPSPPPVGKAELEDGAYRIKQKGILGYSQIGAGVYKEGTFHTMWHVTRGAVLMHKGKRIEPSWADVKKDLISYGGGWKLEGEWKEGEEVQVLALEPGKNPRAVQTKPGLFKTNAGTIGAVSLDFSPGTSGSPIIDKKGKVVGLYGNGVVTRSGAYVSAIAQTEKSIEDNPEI
T2 sequence (P14340 1398-1437): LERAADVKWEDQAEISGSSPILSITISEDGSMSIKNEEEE
T1 sequence (P14340 1476-1653): as the sequence (P14340 1476-1653) above
Chain of human furin (P09958 108-794): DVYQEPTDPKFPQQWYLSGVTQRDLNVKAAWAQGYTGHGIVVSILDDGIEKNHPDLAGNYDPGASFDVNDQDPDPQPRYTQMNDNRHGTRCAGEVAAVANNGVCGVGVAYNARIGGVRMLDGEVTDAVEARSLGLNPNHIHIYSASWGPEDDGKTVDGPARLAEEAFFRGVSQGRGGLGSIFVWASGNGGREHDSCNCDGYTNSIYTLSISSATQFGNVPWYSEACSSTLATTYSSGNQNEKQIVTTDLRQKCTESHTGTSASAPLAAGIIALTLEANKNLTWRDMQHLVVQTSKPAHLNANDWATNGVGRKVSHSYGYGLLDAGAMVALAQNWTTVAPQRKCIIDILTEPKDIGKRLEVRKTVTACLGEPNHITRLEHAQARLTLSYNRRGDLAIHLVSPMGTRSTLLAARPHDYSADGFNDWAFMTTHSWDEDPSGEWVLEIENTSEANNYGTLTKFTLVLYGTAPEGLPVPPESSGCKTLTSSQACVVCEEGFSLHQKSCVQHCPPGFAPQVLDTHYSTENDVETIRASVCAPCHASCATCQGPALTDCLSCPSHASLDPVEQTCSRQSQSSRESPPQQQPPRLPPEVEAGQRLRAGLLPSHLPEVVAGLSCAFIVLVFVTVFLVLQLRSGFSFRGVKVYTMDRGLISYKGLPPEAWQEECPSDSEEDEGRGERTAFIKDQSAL

CCCCCCCCCCCCCCCCNC(=O)[C@H](CCCCN)NC(=O)[C@H](C)NC(=O)[C@H](C)NC(=O)[C@H](CCCCN)NC(=O)CCCCCCCCCCCCCCC [C16-KAAK-C16] (HELM PEPTIDE1{[CCCCCCCCCCCCCCCC(=O)[*:2]].K.A.A.K.[CCCCCCCCCCCCCCCCN[*:1]]}$$$$V2.0)
activity at 2.5 µM (human furin; 2.5 μM inhibitor, 36.5° C.): 94% | activity at 5 µM (human furin; 5 μM inhibitor, 36.5° C.): 83% | activity at 10 µM (human furin; 10 μM inhibitor, 36.5° C.): 77% | activity at 15 µM (human furin; 15 μM inhibitor, 36.5° C.): 69% | activity at 40 µM (human furin; 40 μM inhibitor, 36.5° C.): 3% | Ki (human furin; 10 mM Mes.NaOH, pH 7.0, 2.35 μM Ac-RVRR-MCA, 37° C., read-out: Ki hFurin): 0.97 µM | % recovery in presence of Triton (dengue 2 protease [1]; 25 μM of inhibitor): 56% | Activity with 0.05% Triton (dengue 2 protease [1]; 25 μM of inhibitor): 100 | remaining activity at 15 µM (thrombin; 15 μM inhibitor): 80% | remaining activity at 40 µM (thrombin; 40 μM inhibitor): 55% | remaining activity at 80 µM (thrombin; 80 μM inhibitor): 39% | Ki (dengue 2 protease [2]): 0.63 µM | activity at 2.5 µM (dengue 2 protease [2]; 2.5 μM inhibitor, 36.5° C.): 89% | activity at 5 µM (dengue 2 protease [2]; 5 μM inhibitor, 36.5° C.): 79% | activity at 10 µM (dengue 2 protease [2]; 10 μM inhibitor, 36.5° C.): 68% | activity at 15 µM (dengue 2 protease [2]; 15 μM inhibitor, 36.5° C.): 45% | Activity with inhibitors (dengue 2 protease [2]; 25 μM of inhibitor): 0 | activity at 40 µM (dengue 2 protease [2]; 40 μM inhibitor, 36.5° C.): 10% | inhibition at 50 µM (DENV2 protease): 97.7% | remaining activity at 15 µM (trypsin; 15 μM inhibitor): 64% | remaining activity at 40 µM (trypsin; 40 μM inhibitor): 20% | remaining activity at 80 µM (trypsin; 80 μM inhibitor): 7% | Replicon activity [μM] (1) (DENV2 protease replicon): 3.0 µM

CCCCCCCCCCCCNC(=O)[C@H](CCCCN)NC(=O)[C@H](CCCCN)NC(=O)[C@H](CCCCN)NC(=O)[C@H](C)NC(=O)CCCCCCCCCCC [C12-AKKK-C12] (HELM PEPTIDE1{[CCCCCCCCCCCC(=O)[*:2]].A.K.K.K.[CCCCCCCCCCCCN[*:1]]}$$$$V2.0)
IC50 (DENV2 protease): 0.3 µM | inhibition at 50 µM (DENV2 protease): 98.5% | Replicon activity [μM] (1) (DENV2 protease replicon): 0.1 µM

C16-AKAKG-C16: geminoid in shorthand Cp-Zn-Cq, peptide SEQ ID NO: 87
% Inhibition at 50 μM (2) (DENV2 protease): 102.3% | Replicon activity [μM] (1) (DENV2 protease replicon): 3.0 µM

CCCCCCCCCCCCCCCCNC(=O)[C@H](CCCCN)NC(=O)[C@H](CCC(N)=O)NC(=O)[C@H](CCCNC(=N)N)NC(=O)[C@H](C)NC(=O)CCCCCCCCCCCCCCC [C16-ARQK-C16] (HELM PEPTIDE1{[CCCCCCCCCCCCCCCC(=O)[*:2]].A.R.Q.K.[CCCCCCCCCCCCCCCCN[*:1]]}$$$$V2.0)
IC50 (DENV2 protease): 0.3 µM | inhibition at 50 µM (DENV2 protease): 95.7% | Replicon activity [μM] (1) (DENV2 protease replicon): 5.0 µM

CCCCCCCCCCCCCCCCNC(=O)[C@H](CCCCN)NC(=O)[C@H](CCCCN)NC(=O)[C@H](CCCCN)NC(=O)[C@H](Cc1ccccc1)NC(=O)CCCCCCCCCCCCCCC [C16-FKKK-C16] (HELM PEPTIDE1{[CCCCCCCCCCCCCCCC(=O)[*:2]].F.K.K.K.[CCCCCCCCCCCCCCCCN[*:1]]}$$$$V2.0)
IC50 (DENV2 protease): 0.2 µM | inhibition at 50 µM (DENV2 protease): 95.8% | Replicon activity [μM] (1) (DENV2 protease replicon): 5.0 µM

C16-AAQK-C16: geminoid in shorthand Cp-Zn-Cq, peptide SEQ ID NO: 78
% Inhibition at 50 μM (2) (DENV2 protease): 26.8% | Replicon activity [μM] (1) (DENV2 protease replicon): 5.0 µM

CCCCCCCCCCCCCCCCNC(=O)[C@@H](CO)NC(=O)[C@@H](CCCCN)NC(=O)[C@@H](C)NC(=O)[C@@H](CCCCN)NC(=O)[C@@H](CC(C)C)NC(=O)CCCCCCCCCCCCCCC [C16-D-LKAKS-C16] (HELM PEPTIDE1{[CCCCCCCCCCCCCCCC(=O)[*:2]].[dL].[dK].[dA].[dK].[dS].[CCCCCCCCCCCCCCCCN[*:1]]}$$$$V2.0)
inhibition at 50 µM (DENV2 protease): 97.4% | Replicon activity [μM] (1) (DENV2 protease replicon): 3.0 µM

C16-D-AKAK-L-S-C16: geminoid in shorthand Cp-Zn-Cq, D-AKAK with L-S, SEQ ID NO: 89 (C16-[dA][dK][dA][dK]S-C16)
% Inhibition at 50 μM (2) (DENV2 protease): 108.0% | Replicon activity [μM] (1) (DENV2 protease replicon): 3.0 µM

CCCCCCCCCCCCNC(=O)[C@H](CCCCN)NC(=O)[C@H](C)NC(=O)[C@H](C)NC(=O)[C@H](C)NC(=O)[C@H](CCCCN)NC(=O)CCCCCCCCCCC [C12KA3KC12, n-C11H23C(O)-Lys-(Ala)3-Lys-(n-C12H25).2TFA] (HELM PEPTIDE1{[CCCCCCCCCCCC(=O)[*:2]].K.A.A.A.K.[CCCCCCCCCCCCN[*:1]]}$$$$V2.0)
% recovery in presence of Triton (dengue 2 protease [1]; 5 μM of inhibitor): 45% | Activity with 0.05% Triton (dengue 2 protease [1]; 5 μM of inhibitor): 85 | Ki (dengue 2 protease [2]): 5.4 µM | Activity with inhibitors (dengue 2 protease [2]; 5 μM of inhibitor): 30

C16-AKAK-C16: geminoid in shorthand Cp-Zn-Cq, peptide SEQ ID NO: 74
% Inhibition at 50 μM (2) (DENV2 protease): 103.7% | Replicon activity [μM] (1) (DENV2 protease replicon): 3.0 µM

C16-LKAKG-C16: geminoid in shorthand Cp-Zn-Cq, peptide SEQ ID NO: 88
% Inhibition at 50 μM (2) (DENV2 protease): 98.4% | Replicon activity [μM] (1) (DENV2 protease replicon): 3.0 µM

CCCCCCCCCCCCCCCCNC(=O)[C@H](CO)NC(=O)[C@H](CCCCN)NC(=O)[C@H](C)NC(=O)[C@H](CCCCN)NC(=O)[C@H](CC(C)C)NC(=O)CCCCCCCCCCCCCCC [C16-LKAKS-C16] (HELM PEPTIDE1{[CCCCCCCCCCCCCCCC(=O)[*:2]].L.K.A.K.S.[CCCCCCCCCCCCCCCCN[*:1]]}$$$$V2.0)
IC50 (DENV2 protease): 0.3 µM | inhibition at 50 µM (DENV2 protease): 108% | Replicon activity [μM] (1) (DENV2 protease replicon): 3.0 µM

CCCCCCCCCCCCCCCCNC(=O)[C@H](CCCCN)NC(=O)[C@H](CCC(N)=O)NC(=O)[C@H](C)NC(=O)[C@H](CCCNC(=N)N)NC(=O)CCCCCCCCCCCCCCC [C16-RAQK-C16] (HELM PEPTIDE1{[CCCCCCCCCCCCCCCC(=O)[*:2]].R.A.Q.K.[CCCCCCCCCCCCCCCCN[*:1]]}$$$$V2.0)
IC50 (DENV2 protease): 0.6 µM | inhibition at 50 µM (DENV2 protease): 102% | Replicon activity [μM] (1) (DENV2 protease replicon): 10.0 µM

CCCCCCCCCCCCNC(=O)[C@H](CCCCN)NC(=O)[C@H](CCCCN)NC(=O)[C@H](CCCCN)NC(=O)[C@H](CC(C)C)NC(=O)CCCCCCCCCCC [C12-LKKK-C12] (HELM PEPTIDE1{[CCCCCCCCCCCC(=O)[*:2]].L.K.K.K.[CCCCCCCCCCCCN[*:1]]}$$$$V2.0)
IC50 (DENV2 protease): 0.3 µM | inhibition at 50 µM (DENV2 protease): 102% | Replicon activity [μM] (1) (DENV2 protease replicon): 0.1 µM
